According to patent publication US4310660A, “Lincomycin compounds” (The Upjohn Company, priority 1980, dated 1982):
≈ marks a conversion by molar mass, not a printed value. Where two headings read alike, the source gives them in different places.

What was measured:
Pseudomonas aeruginosa = experiment: MIC vs. aerobic bacteria, microplate broth-dilution (BHI); assay type: cell-based
Experimental: (§1) The Minimal Inhibitory Concentration (MIC's) of both compounds Vs. aerobic bacteria is determined using a standard microplate broth-dilution method. Brain Heart Infusion (BHI-Difco) broth medium is used, and the plates are incubated at 37° C. for 20 hrs.

Diplococcus pneumoniae = experiment: as above; assay type: cell-based; conditions: Streptococcus pneumoniae
Experimental: as §1

Escherichia coli = experiment: as above; assay type: cell-based
Experimental: as §1

Klebsiella pneumoniae = experiment: as above; assay type: cell-based; conditions: Klebsiella pneumoniae
Experimental: as §1

Proteus vulgaris = experiment: as above; assay type: cell-based; conditions: Proteus vulgaris, UC93, 20 h, P. vulgaris UC 93; read-out: MIC
Experimental: as §1

Streptococcus faecalis = experiment: as above; assay type: cell-based; conditions: Enterococcus faecalis
Experimental: as §1

[1] = test system: Salmonella schottmuelleri; experiment: as above; assay type: cell-based; conditions: Salmonella
Experimental: as §1

Staphylococcus aureus = experiment: as above; assay type: cell-based; conditions: Staphylococcus aureus
S. lutea [2] = experiment: MIC, test procedure as given supra; assay type: cell-based; conditions: Micrococcus luteus, UC130, 20 h; S. lutea UC 130
Experimental: as §1
(§2) The Minimal Inhibitory Concentration (MIC's) of a representative number of the compounds prepared in Examples 2-8 follows. The test procedure is as given supra.

S. hemolyticus [3] = experiment: MIC, test procedure as given supra; assay type: cell-based; conditions: UC152, 20 h, S. hemolyticus UC 152; read-out: MIC
Experimental: as §1, §2

S. lutea [4] = experiment: Qual. Assay vs. S. lutea; assay type: cell-based; conditions: qualitative
Streptococcus pyogenes = experiment: MIC vs. aerobic bacteria, microplate broth-dilution (BHI); assay type: cell-based; conditions: UC152, UC 152, read-out: Minimal Inhibitory Concentration (MIC)
Experimental: as §1

S. aureus = experiment: Mouse Protection Test; assay type: in vivo; conditions: for ED50: Staphylococcus aureus, read-out: Median Protective Dose (CD50)
From the text: (§3) Immediately before use, the suspensions were thawed quickly and properly diluted. Infection was via the intrapertioneal route.
(§4) Treatment of the infected groups was begun immediately and continued once per day for 4 days (first 24 hr period=1). Groups of untreated mice served as virulence controls for the culture.
(§5) Seven days after the treatment regimen was begun the surviving animals were sacrificed and the median protective dose of the antibiotic calculated on the basis of mortality rates in the treatment groups. The median protective dose and its 95% confidence interval were calculated according to the method of Spearmen & Karber as programmed on a 360 digital computer.

S. hemolyticus [5] = experiment: Mouse Protection Test; assay type: in vivo; conditions: for ED50: 168 h, read-out: Median Protective Dose (CD50)
From the text: as §3, §4, §5

D. pneumoniae I = experiment: Mouse Protection Test; assay type: in vivo; conditions: for ED50: Streptococcus pneumoniae, 168 h, strain Felton I, read-out: Median Protective Dose (CD50)
From the text: as §3, §4, §5
(§6) U-60,970E was also tested in vivo in standard laboratory mice which were experimentally infected with bacteria. The test was conducted in comparison with U-57,930E.

D. pneumoniae III = experiment: Mouse Protection Test; assay type: in vivo; conditions: for ED50: Streptococcus pneumoniae, 168 h, read-out: Median Protective Dose (CD50); for ED50 / Median Protective Dose (CD50): strain MPI III, two experiments listed; for Median Protective Dose (CD50): 10080 min, listed as U-60970E . Hcl
From the text: as §3, §4, §5, §6

bacteria = experiment: antibacterial activity (general statement)
[6] = UC95, UC 95, read-out: Minimal Inhibitory Concentration (MIC)
[7] = UC41, Diplococcus pneumoniae I, UC 41, read-out: Minimal Inhibitory Concentration (MIC)
[8] = UC45, UC 45, read-out: Minimal Inhibitory Concentration (MIC)
[9] = UC58, UC 58, read-out: Minimal Inhibitory Concentration (MIC)
[10] = UC694, UC 694, read-out: Minimal Inhibitory Concentration (MIC)
[11] = UC126, UC 126, read-out: Minimal Inhibitory Concentration (MIC)
[12] = UC76, S. aureus UC 76, read-out: Minimal Inhibitory Concentration (MIC)
[13] = UC570, S. aureus UC 570, read-out: Minimal Inhibitory Concentration (MIC)
[14] = UC746, S. aureus UC 746, read-out: Minimal Inhibitory Concentration (MIC)

SMILES: CCc1ccnc(C(=O)N[C@@H]([C@H]2O[C@H](SC)[C@H](O)[C@@H](O)[C@H]2O)[C@H](C)O)c1 [U-45,659]
- MIC (Pseudomonas aeruginosa; UC95, 20 h, Ps. aeruginosa UC 95, read-out: MIC): 1000 µg/mL (≈ 2590 µM)
- MIC (Diplococcus pneumoniae; UC41, 20 h, D. pneumoniae UC 41, read-out: MIC): 500 µg/mL (≈ 1290 µM)
- MIC (Escherichia coli; UC45, 20 h, E. coli UC 45, read-out: MIC): > 1000 µg/mL
- MIC (Klebsiella pneumoniae; UC58, 20 h, K. pneumoniae UC 58, read-out: MIC): 1000 µg/mL (≈ 2590 µM)
- MIC (Proteus vulgaris): > 1000 µg/mL
- MIC (Streptococcus faecalis; UC694, 20 h, St. faecalis UC 694, read-out: MIC): > 1000 µg/mL
- MIC ([1]; UC126, 20 h, S. schottmuelleri UC 126): > 1000 µg/mL
- MIC (Staphylococcus aureus; UC76, 20 h, S. aureus UC 76, read-out: MIC): > 1000 µg/mL
- MIC (Staphylococcus aureus; UC570, 20 h, S. aureus UC 570, read-out: MIC): > 1000 µg/mL
- MIC (Staphylococcus aureus; UC746, 20 h, S. aureus UC 746, read-out: MIC): 1000 µg/mL (≈ 2590 µM)
- MIC (S. lutea [2]): 1000 µg/mL (≈ 2590 µM)
- MIC (S. hemolyticus [3]): 500 µg/mL (≈ 1290 µM)

SMILES: CS[C@H]1O[C@H]([C@H](NC(=O)c2cccnc2)[C@H](C)Cl)[C@H](O)[C@H](O)[C@H]1O [U-46,138]
- Qual. Assay vs. S. lutea (S. lutea [4]): Inactive

SMILES: CCCC[C@@H]1CCN[C@H](C(=O)N[C@@H]([C@H]2O[C@H](SC)[C@H](O)[C@@H](O)[C@H]2O)[C@H](C)Cl)C1 [U-60,970E, 4-Cis-n-Butyl-L-Pipecolic Acid Amide of 7-Cl-MTL]
- MIC (Pseudomonas aeruginosa; [6]): > 125 µg/mL
- MIC (Diplococcus pneumoniae; [7]): 0.016 µg/mL (≈ 0.0364 µM)
- MIC (Escherichia coli; [8]): 31.2 µg/mL (≈ 71.1 µM)
- MIC (Klebsiella pneumoniae; [9]): 7.8 µg/mL (≈ 17.8 µM)
- MIC (Streptococcus faecalis; [10]): 0.25 µg/mL (≈ 0.569 µM)
- MIC [1, 11]: 31.2 µg/mL (≈ 71.1 µM)
- MIC (Streptococcus pyogenes): 0.008 µg/mL (≈ 0.0182 µM)
- MIC (Staphylococcus aureus; [12]): 0.125 µg/mL (≈ 0.285 µM)
- MIC (Staphylococcus aureus; [13]): 0.25 µg/mL (≈ 0.569 µM)
- MIC (Staphylococcus aureus; [14]): 0.062 µg/mL (≈ 0.141 µM)
- ED50 (S. aureus; UC76, 168 h, strain UC 76, oral): 8.12 mg/kg
- ED50 (S. aureus; UC76, sc, 168 h, strain UC 76, subcutaneous): 1.32 mg/kg
- in vivo activity compared with U-57,930E (S. aureus; infected mice): essentially the same activity
- ED50 (S. hemolyticus [5]; strain C203, oral): 2.18 mg/kg
- in vivo activity compared with U-57,930E (S. hemolyticus [5]; infected mice): essentially the same activity
- ED50 (S. hemolyticus [5]; sc, strain C203, subcutaneous): 0.35 mg/kg
- ED50 (D. pneumoniae I; oral): 4.42 mg/kg
- ED50 (D. pneumoniae I; sc, subcutaneous): 0.67 mg/kg
- in vivo activity compared with U-57,930E (D. pneumoniae I; infected mice): significantly more active
- ED50 (D. pneumoniae III; po, oral): 3.13 mg/kg
- ED50 (D. pneumoniae III; sc, subcutaneous): 0.44 mg/kg
- in vivo activity compared with U-57,930E (D. pneumoniae III; infected mice): significantly more active
- Median Protective Dose (CD50) (D. pneumoniae III; oral): 4.12 (2.93-5.81) mg/kg
- Median Protective Dose (CD50) (D. pneumoniae III; subcutaneous): 0.29 (0.21-0.41) mg/kg

SMILES: CC[C@H]1CCN[C@@H](C(=O)N[C@@H]([C@H]2O[C@H](SC)[C@H](O)[C@@H](O)[C@H]2O)[C@H](C)Cl)C1 [V A]
- MIC (Pseudomonas aeruginosa; [6]): > 1000 µg/mL
- MIC (Diplococcus pneumoniae; [7]): 62.5 µg/mL (≈ 152 µM)
- MIC (Escherichia coli; [8]): > 1000 µg/mL
- MIC (Klebsiella pneumoniae; [9]): > 1000 µg/mL
- MIC (Streptococcus faecalis; [10]): > 1000 µg/mL
- MIC [1, 11]: > 1000 µg/mL
- MIC (Streptococcus pyogenes): 62.5 µg/mL (≈ 152 µM)
- MIC (Staphylococcus aureus; [12]): 250 µg/mL (≈ 608 µM)
- MIC (Staphylococcus aureus; [13]): 1000 µg/mL (≈ 2430 µM)
- MIC (Staphylococcus aureus; [14]): 125 µg/mL (≈ 304 µM)
- antibacterial potency compared with related form (bacteria): not as potent an antibacterial agent as the L-cis compound
